In this test the test system is NL-RLuc virus. As to the kind of experiment: Inhibition of HIV replication (NL-RLuc luciferase reporter virus in MT-2 cells). The conditions noted are these: Human immunodeficiency virus 1, MT2, 120 h, read-out: Activity. It counts as cell-based. Summed up: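 MT-2 cells were infected with NL4-3-derived virus carrying Renilla luciferase in place of part of nef, with serial compound dilutions, in RPMI 1640 with 10% FBS. After 5 days, virus growth was read as luciferase signal. EC50 came from the median effect equation over at least 2 experiments.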

This is an account of results in patent US20190010139A1 (priority 2015, published 2019).

For the compound `Cc1nc(C)c([C@H](OC(C)(C)C)C(=O)O)c(N2CCC3(CCCC3)CC2)c1-c1ccc(C(=O)NCc2ccccc2)cc1` [Example 21, (S)-2-(5-(4-(Benzylcarbamoyl)phenyl)-2,6-dimethyl-4-(8-azaspiro[4.5]decan-8-yl)pyridin-3-yl)-2-(tert-butoxy)acetic acid], the EC50 is less than 100 nM. With `Cc1nc(C)c([C@H](OC(C)(C)C)C(=O)O)c(N2CC3CCC(C)(C2)C3(C)C)c1-c1ccc(C(=O)NCc2ccccc2)cc1` (stereo partly drawn) [Example 5, (S)-2-(5-(4-(Benzylcarbamoyl)phenyl)-2,6-dimethyl-4-(1,8,8-trimethyl-3-azabicyclo[3.2.1]octan-3-yl)pyridin-3-yl)-2-(tert-butoxy)acetic acid], the EC50 is less than 100 nM.
